# Read-outs that look alike come from different tables or passages of the source.
# Biological target: GCN2 (Homo sapiens, UniProt Q9P2K8)
# Test: GCN2 enzymatic endpoint assay: phosphorylation of GFP-eIF2α measured by TR-FRET (Lanthascreen)
# Format: biochemical
# Outline: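 Endpoint kinase reaction with 2 μM ATP and 80 nM GFP-labelled eIF2α substrate, run at room temperature for 90 min, then stopped with EDTA. Phospho-substrate detected by terbium-antibody TR-FRET, activity taken as the 520/495 nm emission ratio.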
# [1] = tested as described in Example 77, compound and/or hydrochloride, dihydrochloride or trifluoroacetic acid salt, read-out: IC 50 Activity
# Sequence of GCN2 (Q9P2K8 whole entry): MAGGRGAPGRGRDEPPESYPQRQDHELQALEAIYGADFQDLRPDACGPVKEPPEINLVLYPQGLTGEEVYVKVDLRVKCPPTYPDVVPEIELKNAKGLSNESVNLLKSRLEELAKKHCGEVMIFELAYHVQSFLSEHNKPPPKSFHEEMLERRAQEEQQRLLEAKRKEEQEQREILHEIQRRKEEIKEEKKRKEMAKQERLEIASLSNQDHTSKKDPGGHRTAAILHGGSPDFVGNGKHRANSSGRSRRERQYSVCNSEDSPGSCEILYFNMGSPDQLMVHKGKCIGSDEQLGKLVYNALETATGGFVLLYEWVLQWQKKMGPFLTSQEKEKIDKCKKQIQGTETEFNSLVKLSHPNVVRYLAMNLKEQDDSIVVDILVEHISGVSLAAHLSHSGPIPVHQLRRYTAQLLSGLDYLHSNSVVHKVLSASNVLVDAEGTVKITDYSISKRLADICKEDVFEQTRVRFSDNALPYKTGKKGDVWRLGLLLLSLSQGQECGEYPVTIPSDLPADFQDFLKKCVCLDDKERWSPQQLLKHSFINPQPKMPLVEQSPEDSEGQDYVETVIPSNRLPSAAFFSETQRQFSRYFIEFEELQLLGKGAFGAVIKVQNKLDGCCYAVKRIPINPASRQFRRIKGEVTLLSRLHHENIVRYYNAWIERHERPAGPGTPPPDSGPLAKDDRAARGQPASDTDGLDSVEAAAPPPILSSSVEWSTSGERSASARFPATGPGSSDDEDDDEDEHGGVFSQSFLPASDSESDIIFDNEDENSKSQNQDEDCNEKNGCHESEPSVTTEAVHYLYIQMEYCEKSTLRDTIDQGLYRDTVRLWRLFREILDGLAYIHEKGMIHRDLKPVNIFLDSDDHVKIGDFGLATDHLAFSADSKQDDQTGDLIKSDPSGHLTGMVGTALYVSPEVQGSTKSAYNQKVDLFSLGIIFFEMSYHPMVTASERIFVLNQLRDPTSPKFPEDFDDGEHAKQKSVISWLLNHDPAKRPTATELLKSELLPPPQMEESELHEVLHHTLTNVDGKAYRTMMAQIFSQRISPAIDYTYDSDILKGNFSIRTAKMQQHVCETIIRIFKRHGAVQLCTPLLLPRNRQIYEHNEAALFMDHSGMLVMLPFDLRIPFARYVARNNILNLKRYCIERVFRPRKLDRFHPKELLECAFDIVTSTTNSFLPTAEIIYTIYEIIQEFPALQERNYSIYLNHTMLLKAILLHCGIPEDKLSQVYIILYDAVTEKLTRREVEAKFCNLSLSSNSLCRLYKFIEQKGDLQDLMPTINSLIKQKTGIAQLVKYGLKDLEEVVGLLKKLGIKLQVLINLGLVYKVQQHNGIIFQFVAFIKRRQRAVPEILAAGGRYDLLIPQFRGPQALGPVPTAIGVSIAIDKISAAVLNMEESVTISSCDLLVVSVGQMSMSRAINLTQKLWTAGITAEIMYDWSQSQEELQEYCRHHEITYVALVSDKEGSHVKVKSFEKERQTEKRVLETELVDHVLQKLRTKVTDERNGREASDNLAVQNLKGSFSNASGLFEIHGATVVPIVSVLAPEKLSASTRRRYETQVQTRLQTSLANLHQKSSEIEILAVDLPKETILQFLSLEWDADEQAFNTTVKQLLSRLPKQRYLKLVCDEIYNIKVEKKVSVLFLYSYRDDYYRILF
Structure (SMILES),IC50 [1] [nM],"IC50 (GCN2 biochemical IC50, 4 nM GCN2, 2 μM ATP, 80 nM GFP-eIF2α, 90 min RT, read-out: GCN2 activity) [nM]"
"O=C(N[C@@H]1CNC[C@H]1F)[C@@H]1CC[C@@H](Nc2ncc3c(Br)nn(-c4cc(F)c5ncccc5c4)c3n2)C1 [(1R,3R)-3-((3-bromo-1-(8-fluoroquinolin-6-yl)-1H-pyrazolo[3,4-d]pyrimidin-6-yl)amino)-N-((3R,4R)-4-fluoropyrrolidin-3-yl)cyclo-pentane-1-carboxamide]",25 to 200,–
"CNC(=O)[C@]1(C)CC[C@@H](Nc2ncc3c(Br)nn(-c4cc(N5CCNCC5=O)c5ncccc5c4)c3n2)C1 [(1R,3R)-3-[[3-bromo-1-[8-(2-oxopiperazin-1-yl)-6-quinolyl]pyrazolo[3,4-d]pyrimidin-6-yl]amino]-N,1-dimethyl-cyclopentane-carboxamide]",25 to 200,–
C[C@H](N)c1cc(Cl)cc(-n2nc(Br)c3cnc(N[C@@H]4CC[C@@](C)(C#N)C4)nc32)c1,25 to 200,–
CNC(=O)C1(C(C)C#N)CC[C@@H](Nc2ncc3c(Br)nn(-c4ccc(-c5nnc(C)s5)cc4)c3n2)C1 (some centres unmarked),25 to 200,–
"CNS(=O)(=O)[C@@H]1CC[C@@H](Nc2ncc3c(Br)nn(-c4ccc5ncccc5c4)c3n2)C1 (single isomer, unassigned) [Example 16]",–,25 to 200
"CNCc1cc(OC(F)(F)F)cc(-n2nc(Br)c3cnc(N[C@@H]4CCC(C)(C(=O)NC)C4)nc32)c1 (stereo partly drawn) [(3R)-3-[[3-bromo-1-[3-(methylaminomethyl)-5-(trifluoromethoxy)phenyl]pyrazolo[3,4-d]pyrimidin-6-yl]amino]-N,1-dimethyl-cyclopentanecarboxamide]",25 to 200,–
"C[C@@]1(C(=O)N2CCNC(=O)C2)CC[C@@H](Nc2ncc3c(Br)nn(-c4cc(F)c5ncccc5c4)c3n2)C1 [4-[(1R,3R)-3-[[3-bromo-1-(8-fluoro-6-quinolyl)pyrazolo[3,4-d]pyrimidin-6-yl]amino]-1-methyl-cyclopentanecarbonyl] piperazin-2-one]",< 25,–
"CNC(=O)[C@]1(C)CC[C@@H](Nc2ncc3c(Br)nn(-c4cc(C#N)cc(C5CNC5)c4)c3n2)C1 [(1R,3R)-3-[[1-[3-(azetidin-3-yl)-5-cyano-phenyl]-3-bromo-pyrazolo[3,4-d]pyrimidin-6-yl]amino]-N,1-dimethyl-cyclopentane-carboxamide]",25 to 200,–
"CNC(=O)[C@]1(C)CC[C@@H](Nc2ncc3c(Br)nn(-c4cc(C5CNC5)c5ncccc5c4)c3n2)C1 [(1R,3R)-3-[[1-[8-(azetidin-3-yl)-6-quinolyl]-3-bromo-pyrazolo[3,4-d]pyrimidin-6-yl]amino]-N,1-dimethyl-cyclopentane-carboxamide]",25 to 200,–
"CCS(=O)(=O)N1Cc2ccc(-n3nc(Br)c4cnc(N[C@@H]5CC[C@@](C)(C(=O)NC)C5)nc43)cc2C1 [(1R,3R)-3-[[3-bromo-1-(2-ethylsulfonyl-isoindolin-5-yl)pyrazolo[3,4-d]pyrimidin-6-yl]amino]-N,1-dimethyl-cyclopentane-carboxamide]",25 to 200,–
"CNC(=O)[C@]1(C)CC[C@@H](Nc2ncc3c(Br)nn(-c4ccc5c(c4)CCN(S(C)(=O)=O)C5)c3n2)C1 [(1R,3R)-3-[[3-bromo-1-(2-methylsulfonyl-3,4-dihydro-1H-isoquinolin-6-yl)pyrazolo [3,4-d]pyrimidin-6-yl]amino]-N,1-dimethyl-cyclopentanecarboxamide]",25 to 200,–
"Cc1nnc(-c2ccc(-n3nc(Br)c4cnc(N[C@@H]5CC[C@@H](C(=O)N6CCN(C)C(=O)C6)C5)nc43)cc2F)o1 [4-((1R,3R)-3-((3-bromo-1-(3-fluoro-4-(5-methyl-1,3,4-oxadiazol-2-yl)phenyl)-1H-pyrazolo[3,4-d]pyrimidin-6-yl)amino)cyclo-pentane-1-carbonyl)-1-methylpiperazin-2-one]",25 to 200,–
"CC1(C(=O)N2CCN3CCOC[C@@H]3C2)CC[C@@H](Nc2ncc3c(Br)nn(-c4cc(F)c5ncccc5c4)c3n2)C1 (stereo partly drawn) [[(9aS)-3,4,6,7,9,9a-hexahydro-1H-pyrazino [2,1-c][1,4]oxazin-8-yl]-[(3R)-3-[[3-bromo-1-(8-fluoro-6-quinolyl)pyrazolo[3,4-d]pyrimidin-6-yl]amino]-1-methyl-cyclopentyl]methanone]",25 to 200,–
"Fc1cc(-n2nc(Br)c3cnc(N[C@H]4CCOC4)nc32)cc2cccnc12 [3-bromo-1-(8-fluoro-6-quinolyl)-N-[(3S)-tetrahydrofuran-3-yl]pyrazolo [3,4-d]pyrimidin-6-amine]",25 to 200,–
"Cn1cccc(NC(=O)[C@@H]2CC[C@@H](Nc3ncc4c(Br)nn(-c5cc(F)c6ncccc6c5)c4n3)C2)c1=O [(1R,3R)-3-[[3-bromo-1-(8-fluoro-6-quinolyl)pyrazolo[3,4-d]pyrimidin-6-yl]amino]-N-(1-methyl-2-oxo-3-pyridyl)cyclopentane-carboxamide]",25 to 200,–
CNC(=O)[C@]1(C)CC[C@@H](Nc2ncc3c(Br)nn(-c4ccc5nc(N)ncc5c4)c3n2)C1,25 to 200,–

Structure (SMILES),IC50 [1] [nM],"IC50 (GCN2 biochemical IC50, 4 nM GCN2, 2 μM ATP, 80 nM GFP-eIF2α, 90 min RT, read-out: GCN2 activity) [nM]"
"Cc1nnc(-c2ccc(-n3nc(Br)c4cnc(N[C@@H]5CC[C@@](C)(C(=O)O)C5)nc43)cc2CCN)s1 [(1R,3R)-3-[[1-[3-(2-aminoethyl)-4-(5-methyl-1,3,4-thiadiazol-2-yl)phenyl]-3-bromo-pyrazolo[3,4-d]pyrimidin-6-yl]amino]-1-methyl-cyclopentanecarboxylic acid]",25 to 200,–
"N#Cc1cc(-n2nc(Br)c3cnc(N[C@@H]4CC[C@@H](C(=O)N5CC(F)C5)C4)nc32)cc2cccnc12 [6-(3-bromo-6-(((1R,3R)-3-(3-fluoroazetidine-1-carbonyl)cyclopentyl)amino)-1H-pyrazolo [3,4-d]pyrimidin-1-yl)quinoline-8-carbonitrile]",< 25,–
"CNC(=O)[C@]1(C)CC[C@@H](Nc2ncc3c(Br)nn(-c4cc(OCCO)c5c(c4)OCC(=O)N5C)c3n2)C1 [(1R,3R)-3-[[3-bromo-1-[5-(2-hydroxyethoxy)-4-methyl-3-oxo-1,4-benzoxazin-7-yl]pyrazolo [3,4-d]pyrimidin-6-yl]amino]-N,1-dimethyl-cyclopentanecarboxamide]",< 25,–
"N#Cc1cc(-n2nc(Br)c3cnc(N[C@@H]4CC[C@@H](C(=O)N5CCN(C(=O)C6CC6)CC5)C4)nc32)cc2cccnc12 [6-(3-bromo-6-(((1R,3R)-3-(4-(cyclopropanecarbonyl)piperazine-1-carbonyl)cyclopentyl)amino)-1H-pyrazolo [3,4-d]pyrimidin-1-yl)quinoline-8-carbonitrile]",25 to 200,–
"CNC(=O)[C@]1(C)CC[C@@H](Nc2ncc3c(Br)nn(-c4cc(/C=C/S(C)(=O)=O)c5ncccc5c4)c3n2)C1 [(1R,3R)-3-[[3-bromo-1-[8-[(E)-2-methyl-sulfonylvinyl]-6-quinolyl]pyrazolo[3,4-d]pyrimidin-6-yl]amino]-N,1-dimethyl-cyclopentanecarboxamide]",< 25,–
"CC1(C(=O)NCCF)CC[C@@H](Nc2ncc3c(Br)nn(-c4cc(F)c5ncccc5c4)c3n2)C1 (stereo partly drawn) [(3R)-3-[[3-bromo-1-(8-fluoro-6-quinolyl)pyrazolo[3,4-d]pyrimidin-6-yl]amino]-N-(2-fluoroethyl)-1-methyl-cyclopentane-carboxamide]",25 to 200,–
"CNC(=O)[C@]1(CCCOC)CC[C@@H](Nc2ncc3c(Br)nn(-c4cc(F)c5ncccc5c4)c3n2)C1 [(1S,3R)-3-[[3-bromo-1-(8-fluoro-6-quinolyl)pyrazolo[3,4-d]pyrimidin-6-yl]amino]-1-(3-methoxypropyl)-N-methyl-cyclopentane-carboxamide]",< 25,–
"CNC(=O)[C@]1(C)CC[C@@H](Nc2ncc3c(Br)nn(-c4cc(O)c5c(c4)OCC(=O)N5C)c3n2)C1 [(1R,3R)-3-[[3-bromo-1-(5-hydroxy-4-methyl-3-oxo-1,4-benzoxazin-7-yl)pyrazolo[3,4-d]pyrimidin-6-yl]amino]-N,1-dimethyl-cyclo-pentanecarboxamide]",25 to 200,–
"CNC(=O)C1(C)CC[C@@H](Nc2ncc3c(Br)nn(-c4cccc(CCCO)c4)c3n2)C1 (stereo partly drawn) [(3R)-3-[[3-bromo-1-[3-(3-hydroxypropyl)phenyl]pyrazolo[3,4-d]pyrimidin-6-yl]amino]-N,1-dimethyl-cyclopentane-carboxamide]",25 to 200,–
"CNC(=O)[C@]1(C)CC[C@@H](Nc2ncc3c(Br)nn(-c4ccc5ncnn5c4)c3n2)C1 [(1R,3R)-3-[[3-bromo-1-([1,2,4]triazolo[1,5-a]pyridin-6-yl)pyrazolo[3,4-d]pyrimidin-6-yl]amino]-N,1-dimethyl-cyclopentane-carboxamide]",25 to 200,–
CCc1cc(-n2nc(Br)c3cnc(N[C@@H]4CC[C@@](C)(C(=O)NC)C4)nc32)ccc1-c1nnc(C)s1,25 to 200,–
"CNC(=O)[C@]1(C)CC[C@@H](Nc2ncc3c(Br)nn(-c4cc(CO)cc(S(C)(=O)=O)c4)c3n2)C1 [(1R,3R)-3-[[3-bromo-1-[3-(hydroxymethyl)-5-methylsulfonyl-phenyl]pyrazolo[3,4-d]pyrimidin-6-yl]amino]-N,1-dimethyl-cyclo-pentanecarboxamide]",25 to 200,–
"CNC(=O)[C@]1(C)CC[C@@H](Nc2ncc3c(Br)nn(-c4ccc(-c5nnc(COC)s5)cc4)c3n2)C1 [(1R,3R)-3-[[3-bromo-1-[4-[5-(methoxy-methyl)-1,3,4-thiadiazol-2-yl]phenyl]pyrazolo[3,4-d]pyrimidin-6-yl]amino]-N,1-dimethyl-cyclopentanecarboxamide]",25 to 200,–
"COCCNC(=O)[C@@H]1CC[C@@H](Nc2ncc3c(Br)nn(-c4ccc5nc(C)cc(Cl)c5c4)c3n2)C1 [(1R,3R)-3-((3-bromo-1-(4-chloro-2-methyl-quinolin-6-yl)-1H-pyrazolo[3,4-d]pyrimidin-6-yl)amino)-N-(2-methoxyethyl)cyclopentane-1-carboxamide]",200 to 500,–
"O=C([C@@H]1CC[C@@H](Nc2ncc3c(Br)nn(-c4ccc5ncccc5c4)c3n2)C1)N1CC(N2CCS(=O)(=O)CC2)C1 [((1R,3R)-3-((3-bromo-1-(quinolin-6-yl)-1H-pyrazolo[3,4-d]pyrimidin-6-yl)amino)cyclo-pentyl)(3-(1,1-dioxidothiomorpholino)azetidin-1-yl)methanone]",25 to 200,–
CNC(=O)C1CCN(C(=O)[C@@H]2CC[C@@H](Nc3ncc4c(Br)nn(-c5cc(F)c6ncccc6c5)c4n3)C2)C1 (mixture of isomers),25 to 200,–

# — patent US11046699B2, “Pyrazolo-pyrimidin-amino-cycloalkyl compounds and their therapeutic uses” (RAPT THERAPEUTICS, INC., priority 2018, dated 2021)
